Patent US11459323B2, “Monocyclic β-lactam compound for treating bacterial infection” (MEDSHINE DISCOVERY INC., priority 2018, dated 2022)
Converted amounts (≈) assume the structure as drawn. Read-outs that look alike come from different tables or passages of the source. Marks after values point to notes of the source that are not given here.

Assays:
E. coli ATCC 25922 = experiment: MIC by micro-liquid dilution method (CLSI); format: cell-based; conditions: Escherichia coli
P. aeruginosa ATCC 35151 = experiment: MIC by micro-liquid dilution method (CLSI); format: cell-based; conditions: Pseudomonas aeruginosa
[1] = system: K. pneumoniae ATCC BAA-2470 (NDM-1); experiment: MIC by micro-liquid dilution method (CLSI); format: cell-based, Klebsiella pneumonia; conditions: Klebsiella pneumoniae, ATCCBAA2470
[2] = system: E. coli NCTC 13476 (IMP-1 type); experiment: MIC by micro-liquid dilution method (CLSI); format: cell-based; conditions: Escherichia coli
Description: (§1) Three strains of Klebsiella pneumonia, K. pneumoniae ATCC BAA-205 (TEM-1/SHV-1/SHV-12), K. pneumoniae ATCC BAA-1705 (KPC-2), K. pneumoniae ATCC BAA-2470 (NDM-1); three strains of Pseudomonas aeruginosa, P. aeruginosa NCTC13437 (VIM-10; VEB-1), P. aeruginosa PA 14 and P. aeruginosa ATCC 35151; four strains of Escherichia coli, E. coli NCTC 13476 (IMP-1 type), E. coli ATCC BAA-2523 (OXA-48), E. coli MG1655Δtol C, E. coli ATCC 25922; one strain of Acinetobacter baumannii, A. baumannii ATCC 17978 and one strain of Staphylococcus aureus, S. aureus NRS384 were used to determine the minimum inhibitory concentration (MIC) of the compounds by micro-liquid dilution method according to the Institute of Clinical and Laboratory Standard (CLSI) requirements.

[3] = system: E. coli ATCC BAA-2523 (OXA-48); experiment: MIC by micro-liquid dilution method (CLSI); format: cell-based; conditions: Escherichia coli, ATCCBAA2523
Description: as §1

P. aeruginosa PA 14 = experiment: MIC by micro-liquid dilution method (CLSI); format: cell-based; conditions: Pseudomonas aeruginosa, PA14
Description: as §1

E. coli MG1655Δtol C = experiment: MIC by micro-liquid dilution method (CLSI); format: cell-based; conditions: Escherichia coli
Description: as §1

[4] = system: K. pneumoniae ATCC BAA-1705 (KPC-2); experiment: MIC by micro-liquid dilution method (CLSI); format: cell-based, Klebsiella pneumonia; conditions: Klebsiella pneumoniae, ATCCBAA1705
A. baumannii ATCC 17978 = experiment: MIC by micro-liquid dilution method (CLSI); format: cell-based; conditions: Acinetobacter baumannii
[5] = system: K. pneumoniae ATCC BAA-205 (TEM-1/SHV-1/SHV-12); experiment: MIC by micro-liquid dilution method (CLSI); format: cell-based, Klebsiella pneumonia; conditions: Klebsiella pneumoniae, ATCCBAA205
[6] = Pharmacokinetic experiment of the compounds in mice; format: in vivo; conditions: mouse, plasma, 2 mg/kg, Male CD-1 mice, fasting, 2 mpk; for Vd / clearance / AUC(0-t) / half-life / C0: intravenous injection; for Vd: read-out: Apparent distribution volume Vdss; for clearance: read-out: Clearance rate Cl; for AUC(0-t): read-out: Exposure AUC0-last; for half-life: read-out: Half-life period T1/2 (converted); for C0: read-out: Initial concentration C0; for bioavailability / Cmax: second section of Table 7 (intravenous injection); for Cmax: read-out: Maximum concentration Cmax
Procedure: In this experiment, six CD-1 mice (males) were divided into 2 groups (2 groups) according to their similar body weight. Group 1 and Group 2 were given respectively a single intravenous and intraperitoneal injection of the compounds of embodiment 13, embodiment 17, embodiment 32 and embodiment 34, each compound was at 2 mg/kg. The vehicles for intravenous and intraperitoneal injections were 5% dimethyl sulfoxide/95% water (10% polyoxyethylene castor oil), K2-EDTA (anticoagulant).
About 0.02 mL of blood samples from the saphenous vein were collected from all experimental animals, and the actual blood collection time was recorded. In this experiment, the deviation between the actual blood collection time and the theoretical blood collection time was in accordance with the regulations (the deviation of time points within 1 hour after administration were within 1 minute, and other deviations were within 5% of the theoretical time). After the blood samples were collected, they were immediately transferred to labeled centrifuge tubes containing K2 EDTA (0.5 M), followed by centrifugation (3,000 g, 4° C., 15 minutes) and the plasma was collected. The plasma was transferred to pre-cooled centrifuge tubes, quickly frozen in dry ice, and stored in an ultra-low temperature refrigerator at −60° C. or lower until LC-MS/MS analysis.

[7] = system: Acinetobacter baumannii ATCC-BAA-1793; experiment: MIC on Acinetobacter baumannii strains; format: cell-based; conditions: ATCCBAA1793, ATCC-BAA-1793, read-out: MIC
Description: (§2) Twelve strains of Acinetobacter baumannii, A. baumannii ATCC 17978 (ATCC-BAA-1605, ATCC-BAA-1789, ATCC-BAA-1790, ATCC-BAA-1791, ATCC-BAA-1792, ATCC-BAA-1793, ATCC-BAA-1794, ATCC-BAA-1795, ATCC-BAA-1799, ATCC-BAA-1800, ATCC 19606, ATCC 17978) were used to determine the minimum inhibitory concentration (MIC) of the compounds by micro-liquid dilution method according to the Institute of Clinical and Laboratory Standard (CLSI) requirements.

[8] = system: Acinetobacter baumannii ATCC-BAA-1791; experiment: MIC on Acinetobacter baumannii strains; format: cell-based; conditions: ATCCBAA1791
Description: as §2

[9] = system: Acinetobacter baumannii ATCC-BAA-1605; experiment: MIC on Acinetobacter baumannii strains; format: cell-based; conditions: ATCCBAA1605, ATCC-BAA-1605, read-out: MIC
Description: as §2

[10] = system: Pseudomonas aeruginosa PA14; experiment: Lungs of immunosuppressed mice infected with Pseudomonas aeruginosa (1), lung bacterial load; format: in vivo; conditions: 24 hours after infection, day, ip at 2 h, 4 h, 6 h, 8 h
Procedure: Pseudomonas aeruginosa PA14. 64 mice were intraperitoneally injected with 150 mg/kg cyclophosphamide on the first day and the fourth day to give immunosuppressed mice. […] [table] The mice were injected with 50 μL of bacterial solution (2×10^3 CFU) through the airway. 2 hours after the infection, 4 mice in the model group was sacrificed by removing cervical vertebra. Two hours after infection, the drugs were administered by groups, and the mice were administered intraperitoneally once at 2 hours, 4 hours, 6 hours, and 8 hours, a total of 4 times. Mice of each group were sacrificed by removing cervical vertebra 24 hours after infection, lung and kidney tissues were taken aseptically and put into sterilized tissue homogenate tubes, weighed, and an appropriate amount of normal saline (NS) was added, the mixture was homogenized by a homogenizer for 1 min, the lung tissues of the model group were diluted 10^4, 10^5, 10^6 times, the lung tissues of each administration group were diluted 10, 100 times, the kidney tissues of the model group were diluted 10^2, […], 10^4 times, and the lung tissues of each administration group were diluted 10 times, the obtained mixtures were coated on TSA plates using spiral coater, then incubated at 37° C. overnight, and the CFU was counted with a colony counter. Graphpad Prism mapping software was used to make scatter plots of lung tissue CFU. SPSS19.0 software was used to count CFU and average body weight, and analysis of variance was used to analyze differences between groups.

[11] = E. coli ATCC25922, read-out: MIC
[12] = K. pneumoniae ATCCBAA-2470, read-out: MIC
[13] = E. coli NCTC13476, read-out: MIC
[14] = E. coli ATCCBAA-2523, read-out: MIC
[15] = P. aeruginosa PA 14, read-out: MIC
[16] = K. pneumoniae ATCCBAA-1705, read-out: MIC
[17] = A. baumannii ATCC17978, read-out: MIC
[18] = K. pneumoniae ATCCBAA-205, read-out: MIC

| Structure (SMILES) | Vd [6] | clearance [6] | AUC(0-t) [6] | half-life [6] | C0 [6] | bioavailability [6] | Cmax [6] | MIC [1, 12] | MIC [2, 13] | MIC (P. aeruginosa PA 14; [15]) | MIC (E. coli MG1655Δtol C) | MIC [4, 16] | MIC (A. baumannii ATCC 17978; [17]) | MIC [5, 18] | MIC (P. aeruginosa ATCC 35151; ATCC35151) | MIC [3] | other results |
| --- | --- | --- | --- | --- | --- | --- | --- | --- | --- | --- | --- | --- | --- | --- | --- | --- | --- |
| CC1(C)[C@H](NC(=O)/C(=N\OCCOc2ccc3c(c2)CN(C(=N)N)CC3)c2csc(N)n2)C(=O)N1OS(=O)(=O)O [Compound 10] |  |  |  |  |  |  |  | 4 µg/mL (≈ 6.7 µM) | 2 µg/mL (≈ 3.35 µM) | 8 µg/mL (≈ 13.4 µM) | ≤ 0.125 µg/mL | 4 µg/mL (≈ 6.7 µM) | 4 µg/mL (≈ 6.7 µM) | 16 µg/mL (≈ 26.8 µM) |  |  | MIC (E. coli ATCC 25922; [11]): 1 µg/mL (≈ 1.68 µM); MIC (P. aeruginosa ATCC 35151; P. aeruginosa ATCC35151, read-out: MIC): 0.25 µg/mL (≈ 0.419 µM); MIC [3, 14]: 0.25 µg/mL (≈ 0.419 µM) |
| CC1(C)[C@H](NC(=O)/C(=N\OCCOc2ccc3c(c2)CCN(C(=N)N2CCNCC2)C3)c2csc(N)n2)C(=O)N1OS(=O)(=O)O [Compound 11] |  |  |  |  |  |  |  | 1 µg/mL (≈ 1.5 µM) | 0.5 µg/mL (≈ 0.751 µM) | 4 µg/mL (≈ 6.01 µM) | ≤ 0.125 µg/mL | 1 µg/mL (≈ 1.5 µM) | 2 µg/mL (≈ 3 µM) | 16 µg/mL (≈ 24 µM) | ≤ 0.125 µg/mL | ≤ 0.125 µg/mL | MIC (E. coli ATCC 25922; [11]): 0.25 µg/mL (≈ 0.376 µM) |
| CC1(C)[C@H](NC(=O)/C(=N\OCCOc2ccc3c(c2)CCN(C(=N)NC2CCNCC2)C3)c2csc(N)n2)C(=O)N1OS(=O)(=O)O [Compound 12] |  |  |  |  |  |  |  | 1 µg/mL (≈ 1.47 µM) | 0.25 µg/mL (≈ 0.368 µM) | 2 µg/mL (≈ 2.94 µM) | ≤ 0.125 µg/mL | 1 µg/mL (≈ 1.47 µM) | 0.5 µg/mL (≈ 0.736 µM) | 16 µg/mL (≈ 23.5 µM) | ≤ 0.125 µg/mL | ≤ 0.125 µg/mL | MIC (E. coli ATCC 25922; ATCC25922): ≤ 0.125 µg/mL |
| CC1(C)[C@H](NC(=O)/C(=N\OCCOc2ccc3c(c2)CN(C(=N)NCCCN)C3)c2csc(N)n2)C(=O)N1OS(=O)(=O)O [Compound 13] | 0.281 L/kg | 8.51 mL/min/kg | 6.73 µM·h | 28.6 min | 18.9 µM | 88.4% | 5.76 µM |  |  |  |  |  |  |  |  |  |  |
| CC1(C)[C@H](C(=O)O)N2C(=O)C[C@H]2S1(=O)=O [Sulbactam, reference compound] |  |  |  |  |  |  |  |  |  |  | 32 µg/mL (≈ 137 µM) |  |  |  | 64 µg/mL (≈ 274 µM) | 64 µg/mL (≈ 274 µM) | MIC (E. coli ATCC 25922; ATCC25922): 64 µg/mL (≈ 274 µM); MIC [1]: > 128 µg/mL; MIC ([2]; NCTC13476): > 128 µg/mL; MIC (P. aeruginosa PA 14): 8 µg/mL (≈ 34.3 µM); MIC [4]: > 128 µg/mL; MIC (A. baumannii ATCC 17978; ATCC17978): 2 µg/mL (≈ 8.57 µM); MIC [5]: 64 µg/mL (≈ 274 µM) |

Continued, in another order:

| Vd [6] | clearance [6] | AUC(0-t) [6] | half-life [6] | C0 [6] | bioavailability [6] | Cmax [6] | Structure (SMILES) | MIC [1, 12] | MIC [2, 13] | MIC (P. aeruginosa PA 14; [15]) | MIC (E. coli MG1655Δtol C) | MIC [4, 16] | MIC (A. baumannii ATCC 17978; [17]) | MIC [5, 18] | MIC (P. aeruginosa ATCC 35151; ATCC35151) | MIC [3] | other results |
| --- | --- | --- | --- | --- | --- | --- | --- | --- | --- | --- | --- | --- | --- | --- | --- | --- | --- |
| 0.237 L/kg | 4.6 mL/min/kg | 11 µM·h | 35.8 min | 17 µM | 131% | 10.6 µM | CC1(C)[C@H](NC(=O)/C(=N\OCCOc2ccc3c(c2)CN(C(=N)N(CCCN)CCCN)C3)c2csc(N)n2)C(=O)N1OS(=O)(=O)O [Compound 17] | 0.25 µg/mL (≈ 0.359 µM) |  | 0.5 µg/mL (≈ 0.718 µM) |  | 0.25 µg/mL (≈ 0.359 µM) | ≤ 0.125 µg/mL | 2 µg/mL (≈ 2.87 µM) |  |  | MIC [7]: 4 µg/mL (≈ 5.74 µM); MIC [8]: 0.25 µg/mL (≈ 0.359 µM); MIC [9]: 4 µg/mL (≈ 5.74 µM); MIC [3, 14]: ≤ 0.125 µg/mL |
| 0.0636 L/kg | 1.57 mL/min/kg | 5.77 µM·h | 30.8 min | 11.3 µM | 140% | 8 µM | CC1(C)[C@H](NC(=O)/C(=N\O[C@@H](COc2ccc3c(c2)CN(C(=N)N(CCCN)CCCN)C3)C(=O)O)c2csc(N)n2)C(=O)N1OS(=O)(=O)O [Compound 32] |  |  |  |  |  |  |  |  |  | LOG10-of bacterial load ([10]; total dosage 60 mg/kg): 0**; LOG10-of bacterial load ([10]; total dosage 120 mg/kg): 0**; LOG10-of bacterial load ([10]; total dosage 200 mg/kg): 0** |
| 0.274 L/kg | 10.4 mL/min/kg | 4.95 µM·h | 22.6 min | 14.4 µM | 93.3% | 5.55 µM | CC1(C)[C@H](NC(=O)/C(=N\O[C@@H](COc2ccc3c(c2)CN(C(=N)NCCCN)C3)C(=O)O)c2csc(N)n2)C(=O)N1OS(=O)(=O)O [Compound 34] |  |  |  |  |  |  |  |  |  | LOG10-of bacterial load ([10]; total dosage 60 mg/kg): 0**; LOG10-of bacterial load ([10]; total dosage 120 mg/kg): 0**; LOG10-of bacterial load ([10]; total dosage 200 mg/kg): 1.10 ± 1.75 |
